Experimental data from PMC12067741, “Inhibition of SOD1 trimerization is a novel drug target for ALS disease” (Translational Neurodegeneration, 2025).
“Also recorded” adds a separate entry of the source. Like-named read-outs stand apart in the source and are kept apart here.

Legend:
SOD1-G147P = target: T1, SOD1-G147P (Homo sapiens, UniProt P00441, G148P); test: SOD1 oligomerization induced by trimer stabilizer overexpression; assay type: cell-based
T1 construct: expressed in transfected cells
Description: (§1) For SDS-PAGE, proteins were extracted from cells with the RIPA buffer (50 mmol/L Tris–Cl, pH 7.5, 150 mmol/L NaCl, 1% NP-40, 0.1% SDS and […]). To detect the oligomer status, the cells were harvested with the TNNI buffer (50 mmol/L Tris–Cl, pH 7.5, 150 mmol/L NaCl, 0.3% NP-40, 100 mmol/L iodoacetamide, protease inhibitor cocktails) and reacted with 0.04% glutaraldehyde (Glu) for 30 min, and then SDS-PAGE was performed using the pan-SOD1 antibody. Samples were separated via SDS-PAGE and transferred to PVDF membrane. Blotted membranes were blocked by 3% skim milk containing TBST buffer for 1 h and incubated with specific antibodies. The following primary antibodies were used: pan-SOD1 (GTX100554) from Genetex (Irvine, CA); misfolded SOD1-specific antibody (B8H10) from MediMabs (Montreal, Canada); Actin (sc-1616), GST (sc-138), and GFP (Green fluorescent protein; sc-8036) antibodies from Santa Cruz Biotechnology (Santa Cruz, CA); TDP-43 antibody (10782–2-AP) from Proteintech (Rosemont, IL); anti-FLAG (Sigma; F3165) from Sigma-Aldrich (St. Louis, MO). HRP-conjugated goat anti-mouse, goat anti-rabbit and mouse anti-goat antibodies (Pierce, Thermo Fisher Scientific, Inc., Rockford, IL) were used as secondary antibodies. The blots were detected using an ECL assay (Advansta) and images were acquired using the […] ImageQuant 800 (Cytiva) system and an X-Ray film detector. […]

misfolded MT-SOD1 = test: Dot blot with misfolded SOD1-specific antibody; assay type: cell-based; settings: 24 h treatment
Description: To detect misfolded SOD1 expression, cells transfected with SOD1 vectors were treated with PRG-A-04 for 24 h. After incubation, cells were lysed with […] NN buffer (50 mmol/L Tris–Cl, pH 7.5, 150 mmol/L NaCl, 0.3% NP-40), and then cell lysates were immobilized on nitrocellulose membrane using the Bio-Dot SF Microfiltration apparatus (Bio-Rad Laboratories, Hercules, CA). The membrane was washed with TBS and blocked by 5% BSA to remove background for 1 h. After blocking, the membrane was incubated with antibody for misfolded SOD1 (1:2000) or actin (1:10,000 in 1% skim milk containing TBST) for 30 min, then reacted with secondary antibody (goat anti-mouse IgG-horseradish peroxidase, 1:50,000 in 1% skim milk blocking buffer) for 30 min. Proteins were detected with ECL and X-ray film exposure. Actin was used as the loading control.

CYP 3A = test: CYP inhibition (direct)
Text: Fig. S8. Preclinical data of PRG-A-04 a Plasma protein binding b CYP inhibition(direct) […]
d Mouse Brain Tissue penetration
For the convenience of calculation, […]

MT-SOD1 = test: SOD1 oligomerization assay in cells transfected with MT-SOD1 (glutaraldehyde fixation, SDS-PAGE); assay type: cell-based
Description: as §1

[1] = Metabolic stability in liver microsomes; assay type: in vitro ADME; settings: cynomolgus monkey liver microsomes

T1 sequence (P00441 whole entry G148P): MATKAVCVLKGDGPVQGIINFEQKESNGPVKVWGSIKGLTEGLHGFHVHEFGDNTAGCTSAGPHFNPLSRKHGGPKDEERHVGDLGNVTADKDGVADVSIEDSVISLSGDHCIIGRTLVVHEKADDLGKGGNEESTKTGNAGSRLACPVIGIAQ

Question: For `COc1cc(C=CCOC2Cc3cc4ccc(=O)oc4cc3OC2(C)C)ccc1[N+](=O)[O-]` (stereo not shown) [PRG-A-04], which “effect on SOD1 oligomerization caused by trimer-stabilizing mutant” value (SOD1-G147P) is on record?
Answer: Its value is “reduced the SOD1 oligomerization”.

Question: And the “effect on misfolding SOD1” value (misfolded MT-SOD1)?
Answer: The value was “reduction in misfolding SOD1”.

Question: And the IC50 (CYP 3A)?
Answer: Its IC50 is > 10 µM.

Question: What about the IC50 (CYP 3A; read-out: IC50, DI, CYP 3A(midazolam), direct inhibition) of the same molecule?
Answer: The IC50 was > 10 µM.

Question: What about the “effect on SOD1 dimer formation” value (MT-SOD1; cells transfected with MT-SOD1) of the same molecule?
Answer: The value was “did not affect dimer formation”.

Question: What about the “effect on MT-SOD1 aggregation / oligomerization” value (MT-SOD1; cells transfected with MT-SOD1 vectors) of the same molecule?
Answer: The value was “suppressed the MT-SOD1 aggregation; also recorded: blocked aggregation of various SOD1 mutants; also recorded: suppressed SOD1 oligomerization by MT-SOD1 in a dose-dependent manner”.

Question: And the “extent of metabolism in liver microsomes” value [1]?
Answer: The value was “moderately metabolized; also recorded: metabolized significantly”.
